“Also recorded” adds a separate entry of the source.
Key:
[1] = test system: DUX4-fl mRNA in FSHD muscle cells; assay: DUX4-fl mRNA in FSHD muscle cells treated with MAO inhibitors (RT-PCR); format: cell-based, human
Text: The monamine oxidase inhibitor pargyline has been reported to inhibit the activity of the LSD1 histone demethylase that demethylates H3K9.
FIG. 22 graphically illustrates that pargyline decreases the amount of DUX4 mRNA in FSHD muscle cells.
Middle panel is a no RT control and bottom panel is a GAPDH loading control.

[2] = test system: DUX4 mRNA in FSHD fibroblasts; assay: DUX4 mRNA in FSHD fibroblasts with beta-estradiol inducible MyoD, cycloheximide addition and washout; format: cell-based, human; conditions: MyoD induction, 38 hours in differentiation conditions, chx added, FIG. 24
Text: The 3-prime untranslated region (UTR) of the DUX4 mRNA has an unusual exon-intron structure. The translational stop codon is in the first exon, whereas the polyadenylation sequence is in the third exon. The separation of the translational stop codon from the polyadenylation site by two exon-intron junctions would be predicted to make this mRNA subject to translation dependent nonsense mediated decay.
FSHD fibroblasts expressing low amounts of DUX4 mRNA were stably transduced with a beta-estradiol inducible MyoD so that addition of beta-estradiol will convert them to skeletal muscle, which after 96 hours of induction increases the steady-state levels of the DUX4 mRNA and activates expression of the MyoD target Mgn (compare lanes 1 and 2). […] Washout of the chx results in the rapid loss of the DUX4 mRNA, disappearing between 2 and 8 hrs of washout. The loss of DUX4 mRNA is associated with its translation since the DUX4 target PRAME 1 is induced as the DUX4 mRNA disappears.

SMILES: C#CCN(C)Cc1ccccc1 [pargyline]
- abundance of DUX4-fl mRNA ([1]; FSHD muscle cells expressing endogenous DUX4-fl mRNA, quantitative RT-PCR, FIG. 22): suppresses the expression of DUX4 mRNA; also recorded: decreases the abundance of DUX4-fl mRNA in a dose-dependent manner
- amount of DUX4-fl mRNA ([1]; cultured FSHD muscle cells differentiated 48 hours in differentiation medium with varying amounts of pargyline, RT-PCR, FIG. 23): dose-dependent inhibition of DUX4 mRNA expression

SMILES: C[C@@H]1C[C@@H]([C@H](O)CC2CC(=O)NC(=O)C2)C(=O)[C@@H](C)C1 [cycloheximide]
- DUX4 mRNA level [2]: accumulation of the DUX4 mRNA; also recorded: significant increase in DUX4 mRNA
